Consider 2 compounds from patent US11020337B2, “Aspartyl-dipeptides for skin care and cosmetic use” (Cysal GmbH, priority 2016, dated 2021).

In experiment [1] the test system is human skin. The experiment is described as follows: In-vivo skin moisture (Corneometer CM 825). The settings on record: 4 weeks; for improvement in skin moisture, treated area: twice a day. The source says: (§1) Panelists: The test panel included 5 adult female volunteers with dry skin, elasticity less than average and crow's feet wrinkles next to the eyes. At the beginning of the application test all subjects have been checked by a dermatologist. Only subjects were allowed to join the trial with no pathological skin modifications diagnosed. During the application test all subjects had in case of acute skin irritations access to daily consultations from an attending medical specialist who was accompanying the test. Daily consultations about the skin conditions through the test-accompanying medical doctor were possible.
(§2) Experimental application of test-products: Test areas were around 3 cm in diameter. The test products were applied on the volar forearm (5% and 10% aqueous solutions; skin elasticity and hydration tests) as well as the crows's feet wrinkles (5% aqueous solution). The application of the preparations have been done twice a day during the whole test period (4 weeks). The subjects have been instructed not to use other care products in this test area. Untreated skin areas were used as control.
Skin moisture: this aspect was tested using the Corneometer CM 825 (Firma Courage+Khazaka). The test products were applied twice a day on the relevant pre-determined skin areas during the application period. The test persons were acclimatized for 45 minutes at a temperature of 22 degrees centigrade and 60% relative humidity before every measurement, then, the skin measurement values were measured at three different places within the respective testing areas. The recorded values were averaged. Untreated skin close to the test area was used as the control measurement area. Measurements were taken before the application and after four weeks of application. All measurements were performed at least 10-12 hours after the last application of the formerly used product resp. the test product.

Experiment [2] concerns basal keratinocytes of 3D-Epidermal skin models. The experiment is described as follows: Click-iT EdU proliferation rate of basal keratinocytes. Format: cell-based, human. The settings on record: topical, 30 μl of 5% aqueous solution. As for the experimental part:
(§3) Experimental application of test-products: In this study 30 μl of a 5% aqueous solution of the test substances were applied as follows using a calibrated pipette:
Proliferation testing of basal Keratinocytes (Example 2): topically with air exposed models as reference and analysis time points for proliferation rate after 3 and 6 days.
(§4) Application was done in duplicates (2 models) at all time points and models were cultured and analyzed in parallel under identical conditions.
EpiDerm 3D-Epidermal skin models: Nowadays in vitro test procedures are a very good alternative to animal experiments and become increasingly important for the cosmetic industry. For cosmetic products which are used over a longer period, dermatological tests for harmlessness are an essential prerequisite for a high application safety and customer satisfaction. During the development of new cosmetic products biological effects of particular active ingredients or complete formulations turn into focus of cosmetic interests. The human EpiDerm skin model is an in vitro reconstructed multilayered epithelial tissue which is cultured of normal human keratinocytes. […] The model is mitotically as well as metabolically active and expresses typical differentiation marker like pro-fillagrin 1 and cytokeratin 1/10. […]
Evaluation of the proliferation rate: Out of every used skin model, 6 mm punch biopsies were taken, embedded in O.C.T.™, cryoconserved in the gaseous phase of liquid nitrogen and subsequently cut into 5-6 μm sections. Nuclei from every section were counted (blue fluorescence, DAPI) and the percentage of proliferating nuclei (red fluorescence) was determined.
Fluorescence microscopy: Click-iT®-EdU tagged cells were stained in red (λex 594 nm). […] Click-iT®-EdU and DAPI stained cells were recorded solely and merged subsequently. The fluorescence analysis and documentation was performed with the ZEISS, Axio Scope A1HAL 100. […]

Experiment [3] deals with human skin. The experiment is described as follows: In-vivo skin elasticity test (cutometer MPA 580, R2-values). The settings on record: 4 weeks; for improvement in skin elasticity, treated area: twice a day.
Excerpt: as §1, §2
Elasticity test: The test was performed with the cutometer MPA 580 Fa. Courage+Khazaka electronics GmbH. The principle of measurement is based on the suction/elongation principle. To obtain start conditions the instrument was adjusted for 450 mbar low pressure. The suction time was defined to 5 secs. The relaxation time (abrupt loss of low pressure) was fixed to 3 secs. All measurements have been repeated three times for each test and control areas. Afterwards a mean for R2-values obtained from three independent measurements per area has been calculated. To perform measurements the instrument was adjusted for the named parameters before the test was started. All parameter adjustments described in literature as mainly used and reliable remained unchanged during the measurements. The cutometry has been performed at the beginning and at the end of the application period. R2-values have been measured and analyzed for each subject.

The test system of experiment [4] is crow's feet wrinkles. The experiment is described as follows: In-vivo single wrinkle depth (PRIMOS optical 3D measurement). Details: species or system human. The settings on record: 5% aqueous solution, four weeks, 5 subjects.
Excerpt: as §1
Experimental application of test-products: Test areas were around 3 cm in diameter. […]
Single wrinkles depth: Optical 3D measurement using a PRIMOS (Phaseshift Rapid In vivo Measurement Of Skin) compact portable system was used for this measurement. PRIMOS comact portable was applied on an area of 40×30 mm and digital fotos of the measured area were made. […] Finally, the measurement data generated were processed and then evaluated. […] With the PRIMOS software the changes in structure of the epidermis can be classified quantitatively with the aid of various standardized surface measurement parameters in accordance with DIN (Deutsche Industrie Norm, German industrial standards) and ISO (International Standards Organisation). […] The skinfold depth can be measured by determining the distances. […]

The test system of experiment [5] is EpiDerm 3D-Epidermal skin models (normal human keratinocytes). The experiment is described as follows: MTT-Vitality-Assay, in-vitro epidermal vitality/viability. Format: cell-based. The settings on record: 30 μl of 5% aqueous solution once a day. As for the experimental part: as §3, §4
EpiDerm 3D-Epidermal skin models: Nowadays in vitro test procedures are a very good alternative to animal experiments and become increasingly important for the cosmetic industry. For cosmetic products which are used over a longer period, dermatological tests for harmlessness are an essential prerequisite for a high application safety and customer satisfaction. During the development of new cosmetic products biological effects of particular active ingredients or complete formulations turn into focus of cosmetic interests. The human EpiDerm skin model is an in vitro reconstructed multilayered epithelial tissue which is cultured of normal human keratinocytes. […] The model is mitotically as well as metabolically active and expresses typical differentiation marker like pro-fillagrin 1 and cytokeratin 1/10.
This term summarizes all metabolic activities which cells need for their basic requirements as well as for growth and proliferation. An established method to measure vitality of cells and tissues is the MTT-Vitality-Assay. […] The formazan crystals precipitate into the cellular cytosol, whereby the amount of precipitate correlates quantitatively with the general cellular vitality. Therefore the MTT-Assay can be considered as an indicator for the vitality or “Fitness” of a tissue, because cellular processes like respiration and energy extraction lead to the reduction of MTT.
Aim of this experiment was to examine the potential of the test substances to vitalize the tissue. For this purpose 3D-Epidermis skin models were used. […] After incubation period the bottom of model jars were dabbed with a sterile wipe to remove excessive medium/MTT mix. Models were transferred to a new sterile 24 well plate and 2 ml isopropyl was added subsequently. To avoid evaporation, plates were sealed with parafilm, covered with tinfoil and incubated 2 h on a shaker to extract formazan crystals. Optical density of released crystals of all extracts was determined at 570 nm. Measured values were analyzed and assessed. […] The vitality was derived from averages of determined ODs whereby the water treated, optimal cultured control was set as 100% vitality [vitality: 100*(ODtest substance/ODcontrol)].

Where [6] appears, read: crow's feet (next to the eye), 5% aqueous solution.
[7] abbreviates: crow's feet (next to the eyes), 5% aqueous solution.
The mark [8] stands for this setting: volar forearm, 5% aqueous solution.
Where [9] appears, read: 3 days incubation, air exposed models 11.21%.
Setting [10] is: crow's feet area, 5% aqueous solution.
The mark [11] stands for this setting: volar forearm, 10% aqueous solution.

As for `NCCCC[C@H](NC(=O)C[C@H](N)C(=O)O)C(=O)O` [β-L-aspartyl-L-lysine], the “improvement in skin moisture, treated area” value in experiment [1] (setting [6]) was “about 16.10%”; in experiment [1] (setting [8]), “about 2.05%”. Further, the “average improvement in skin moisture after control area deduction” value in experiment [1] (setting [7]) worked out at 15.79%; in experiment [1] (setting [8]), 1.74%. In addition, the “percentage of proliferative cells (nuclei)” value is reported as 16.33% in experiment [2] (setting [9]) and 22.12% in experiment [2] (6 days incubation, air exposed models 17.11%). In addition, the “average improvement in skin elasticity after control area deduction” value in experiment [3] (setting [10]) is given as 11.21%; in experiment [3] (forearm, 5% aqueous solution), 6.18%. Further, the “improvement in skin elasticity, treated area” value in experiment [3] (crow's feet, 5% aqueous solution) is reported as 11.06%; in experiment [3] (setting [8]), “about 6.03%”. The “average improvement in the wrinkle depth” value in experiment [4] is reported as 20.02%.
Regarding `N=C(N)NCCC[C@H](NC(=O)C[C@H](N)C(=O)O)C(=O)O` [β-L-aspartyl-L-arginine], the “vitality (MTT, water treated control = 100%)” value in experiment [5] (48 h systematical (systemic) incubation, FIG. 1) turned out to be 127.23%; in experiment [5] (48 h topical application, FIG. 2) it was 112.36%; in experiment [5] (120 h systemical incubation, FIG. 3), 118.16%; in experiment [5] (120 h topical application, FIG. 4), 120.61%. Moreover, the “improvement in skin moisture, treated area” value is “about 1.873%” in experiment [1] (setting [6]), “about 1.126%” in experiment [1] (setting [8]) and ~0.871% in experiment [1] (setting [11]). The “average improvement in skin moisture after control area deduction” value in experiment [1] (setting [7]) was 1.56%; in experiment [1] (setting [8]) it was 0.82%; in experiment [1] (setting [11]), 0.56%. The “percentage of proliferative cells (nuclei)” value in experiment [2] (setting [9]) is recorded as 30.98%. Further, the “average improvement in skin elasticity after control area deduction” value was determined as 8.08% in experiment [3] (setting [10]); 9.26% in experiment [3] (forearm, 5% aqueous solution); 8.85% in experiment [3] (forearm, 10% aqueous solution). For the same compound, the entries for the “improvement in skin elasticity, treated area” value in experiment [3] (setting [8]) and in experiment [3] (setting [11]) were “about 9.11%” and ~8.70%, respectively. The “average improvement in the wrinkle depth” value in experiment [4] worked out at 16.4%.
